Columns and labels:
[1] = system: soybean; test: preemergence herbicidal activity on soybean; assay type: in vivo, Glycine max var. Winchester; conditions: Glycine max, pre-emergence, 0.3 Kg/Ha, after 12-17 days, read-out: PREEMERGENCE HERBICIDAL ACTIVITY (% CONTROL) SOY
Method: (§1) The (oxaalkyl)phenyl-substituted heterocycles of this invention were tested for pre- and postemergence herbicidal activity using a variety of crops and weeds. The test plants included soybean (Glycine max var. Winchester),field corn (Zea mays var. Pioneer 3732), wheat (Triticum aestivum var. Lew), morningglory (Ipomea lacunosa or Ipomea hederacea), […] (Abutilon theophrasti), green foxtail (Setaria viridis), Johnsongrass (Sorghum halepense), blackgrass (Aloepecurus myosuroides), common chickweed (Stellaria media), and common cocklebur (Xanthium strumarium L.).
(§2) For preemergence testing, two disposable fiber flats (8 cm×15 cm×25 cm) for each rate of application of each candidate herbicide were filled to an approximate depth of 6.5 cm with steam-sterilized sandy loam soil. The soil was leveled and impressed with a template to provide five evenly spaced furrows 13 cm long and 0.5 cm deep in each flat. Seeds of soybean, wheat, corn, green foxtail, and johnsongrass were planted in the furrows of the first flat, and seeds of velvetleaf, morningglory, common chickweed, cocklebur, and blackgrass were planted in the furrows of the second flat. The five-row template was employed to firmly press the seeds into place. A topping soil of equal portions of sand and sandy loam soil was placed uniformly on top of each flat to a depth of approximately 0.5 cm. Flats for postemergence testing were prepared in the same manner except that they were planted 9-14 days prior to the preemergence flats and were placed in a greenhouse and watered, thus allowing the seeds to germinate and the foliage to develop.
(§3) In both pre- and postemergence tests, a stock solution of the candidate herbicide was prepared by dissolving 0.27 g of the compound in 20 mL of water/acetone (50/50) containing 0.5% v/v sorbitan monolaurate. For an application rate of 3000 g/ha of herbicide a 10 mL portion of the stock solution was diluted with water/acetone (50/50) to 45 mL.
(§4) The preemergence flats were initially subjected to a light water spray. The four flats were placed two by two along a conveyor belt (i.e., the two preemergence followed by the two postemergence flats). The conveyor belt fed under a spray nozzle mounted about ten inches above the postemergent foliage. The preemergent flats were elevated on the belt so that the soil surface was at the same level below the spray nozzle as the foliage canopy of the postemergent plants. The spray of herbicidal solution was commenced and once stabilized, the flats were passed under the spray at a speed to receive a coverage equivalent of 1000 L/ha. At this coverage the application rates are those shown in the above table for the individual herbicidal solutions. The preemergence flats were watered immediately thereafter, placed in the greenhouse and watered regularly at the soil surface. The postemergence flats were immediately placed in the green-house and not watered until 24 hours after treatment with the test solution. Thereafter they were regularly watered at ground level. After 12-17 days the plants were examined and the phytotoxicity data were recorded.
(§5) Phytotoxicity data were taken as percent control. Percent control was by a method similar to the 0 to 1 00 rating system disclosed in "Research Methods in Weed Science," 2nd ed., B. Truelove, Ed.; Southern Weed Science Society; Auburn University, Auburn, Ala., 1977.

[2] = system: cocklebur; test: preemergence herbicidal activity on cocklebur; assay type: in vivo, Xanthium strumarium L.; conditions: Xanthium strumarium, pre-emergence, 0.3 Kg/Ha, after 12-17 days, read-out: PREEMERGENCE HERBICIDAL ACTIVITY (% CONTROL) XANPE
Method: as §1, §2, §3, §4, §5

[3] = system: velvetleaf; test: postemergence herbicidal activity on velvetleaf; assay type: in vivo; conditions: Abutilon theophrasti, post-emergence, 0.3 Kg/Ha, after 12-17 days, read-out: POSTEMERGENCE HERBICIDAL ACTIVITY (% CONTROL) ABUTH
Method: as §1, §2, §3, §4, §5

[4] = system: johnsongrass; test: preemergence herbicidal activity on johnsongrass; assay type: in vivo; conditions: Sorghum halepense, pre-emergence, 0.3 Kg/Ha, after 12-17 days, read-out: PREEMERGENCE HERBICIDAL ACTIVITY (% CONTROL) SORHA
Method: as §1, §2, §3, §4, §5

[5] = system: corn; test: postemergence herbicidal activity on corn; assay type: in vivo, Zea mays var. Pioneer 3732; conditions: Zea mays, post-emergence, 0.3 Kg/Ha, after 12-17 days, read-out: POSTEMERGENCE HERBICIDAL ACTIVITY (% CONTROL) CRN
Method: as §1, §2, §3, §4, §5

[6] = system: chickweed; test: preemergence herbicidal activity on chickweed; assay type: in vivo; conditions: Stellaria media, pre-emergence, 0.3 Kg/Ha, after 12-17 days, read-out: PREEMERGENCE HERBICIDAL ACTIVITY (% CONTROL) STEME
Method: as §1, §2, §3, §4, §5

[7] = system: green foxtail; test: preemergence herbicidal activity on green foxtail; assay type: in vivo; conditions: Setaria viridis, pre-emergence, 0.3 Kg/Ha, after 12-17 days, read-out: PREEMERGENCE HERBICIDAL ACTIVITY (% CONTROL) SETVI
Method: as §1, §2, §3, §4, §5

[8] = system: blackgrass; test: postemergence herbicidal activity on blackgrass; assay type: in vivo, Aloepecurus myosuroides; conditions: Alopecurus myosuroides, post-emergence, 0.3 Kg/Ha, after 12-17 days, read-out: POSTEMERGENCE HERBICIDAL ACTIVITY (% CONTROL) ALOMY
Method: as §1, §2, §3, §4, §5

[9] = system: velvetleaf; test: preemergence herbicidal activity on velvetleaf; assay type: in vivo; conditions: Abutilon theophrasti, pre-emergence, 0.3 Kg/Ha, after 12-17 days, read-out: PREEMERGENCE HERBICIDAL ACTIVITY (% CONTROL) ABUTH
Method: as §1, §2, §3, §4, §5

[10] = system: blackgrass; test: preemergence herbicidal activity on blackgrass; assay type: in vivo, Aloepecurus myosuroides; conditions: Alopecurus myosuroides, pre-emergence, 0.3 Kg/Ha, after 12-17 days, read-out: PREEMERGENCE HERBICIDAL ACTIVITY (% CONTROL) ALOMY
Method: as §1, §2, §3, §4, §5

[11] = system: corn; test: preemergence herbicidal activity on corn; assay type: in vivo, Zea mays var. Pioneer 3732; conditions: Zea mays, pre-emergence, 0.3 Kg/Ha, after 12-17 days, read-out: PREEMERGENCE HERBICIDAL ACTIVITY (% CONTROL) CRN
Method: as §1, §2, §3, §4, §5

[12] = system: chickweed; test: postemergence herbicidal activity on chickweed; assay type: in vivo; conditions: Stellaria media, post-emergence, 0.3 Kg/Ha, after 12-17 days, read-out: POSTEMERGENCE HERBICIDAL ACTIVITY (% CONTROL) STEME
Method: as §1, §2, §3, §4, §5

[13] = system: green foxtail; test: postemergence herbicidal activity on green foxtail; assay type: in vivo; conditions: Setaria viridis, post-emergence, 0.3 Kg/Ha, after 12-17 days, read-out: POSTEMERGENCE HERBICIDAL ACTIVITY (% CONTROL) SETVI
Method: as §1, §2, §3, §4, §5

[14] = system: johnsongrass; test: postemergence herbicidal activity on johnsongrass; assay type: in vivo; conditions: Sorghum halepense, post-emergence, 0.3 Kg/Ha, after 12-17 days, read-out: POSTEMERGENCE HERBICIDAL ACTIVITY (% CONTROL) SORHA
Method: as §1, §2, §3, §4, §5

[15] = system: soybean; test: postemergence herbicidal activity on soybean; assay type: in vivo, Glycine max var. Winchester; conditions: Glycine max, post-emergence, 0.3 Kg/Ha, after 12-17 days, read-out: POSTEMERGENCE HERBICIDAL ACTIVITY (% CONTROL) SOY
Method: as §1, §2, §3, §4, §5

[16] = system: morningglory; test: preemergence herbicidal activity on morningglory; assay type: in vivo, Ipomea lacunosa or Ipomea hederacea; conditions: Ipomoea, pre-emergence, 0.3 Kg/Ha, after 12-17 days, read-out: PREEMERGENCE HERBICIDAL ACTIVITY (% CONTROL) IPOSS
Method: as §1, §2, §3, §4, §5

[17] = system: cocklebur; test: postemergence herbicidal activity on cocklebur; assay type: in vivo, Xanthium strumarium L.; conditions: Xanthium strumarium, post-emergence, 0.3 Kg/Ha, after 12-17 days, read-out: POSTEMERGENCE HERBICIDAL ACTIVITY (% CONTROL) XANPE
Method: as §1, §2, §3, §4, §5

[18] = system: wheat; test: postemergence herbicidal activity on wheat; assay type: in vivo, Triticum aestivum var. Lew; conditions: Triticum aestivum, post-emergence, 0.3 Kg/Ha, after 12-17 days, read-out: POSTEMERGENCE HERBICIDAL ACTIVITY (% CONTROL) WHT
Method: as §1, §2, §3, §4, §5

[19] = system: morningglory; test: postemergence herbicidal activity on morningglory; assay type: in vivo, Ipomea lacunosa or Ipomea hederacea; conditions: Ipomoea, post-emergence, 0.3 Kg/Ha, after 12-17 days, read-out: POSTEMERGENCE HERBICIDAL ACTIVITY (% CONTROL) IPOSS
Method: as §1, §2, §3, §4, §5

[20] = system: wheat; test: preemergence herbicidal activity on wheat; assay type: in vivo, Triticum aestivum var. Lew; conditions: Triticum aestivum, pre-emergence, 0.3 Kg/Ha, after 12-17 days, read-out: PREEMERGENCE HERBICIDAL ACTIVITY (% CONTROL) WHT
Method: as §1, §2, §3, §4, §5

Cc1nn(-c2cc(CC(Cl)C(C)(C)O)c(Cl)cc2F)c(=O)n1C(F)F (centres unmarked) [Compound 2]
activity at 300 g/ha [1]: 60% | activity at 300 g/ha [2]: 60% | activity at 300 g/ha [3]: 100% | activity at 300 g/ha [4]: 90% | activity at 300 g/ha [5]: 80% | activity at 300 g/ha [6]: 90% | activity at 300 g/ha [7]: 100% | activity at 300 g/ha [8]: 70% | activity at 300 g/ha [9]: 100% | activity at 300 g/ha [10]: 70% | activity at 300 g/ha [11]: 80% | activity at 300 g/ha [12]: 70% | activity at 300 g/ha [13]: 80% | activity at 300 g/ha [14]: 80% | activity at 300 g/ha [15]: 80% | activity at 300 g/ha [16]: 100% | activity at 300 g/ha [17]: 55% | activity at 300 g/ha [18]: 60% | activity at 300 g/ha [19]: 100% | activity at 300 g/ha [20]: 70%
